Laboratory results taken from patent US20190262291A1, “METHODS AND COMPOSITIONS FOR ALLEVIATING MYOPATHY” (priority 2016, published 2019).
Read-outs that look alike come from different tables or passages of the source.

Experiments:
[1] = NOAEL for HMB oral ingestion in rats (Baxter et al.); format: in vivo, rat; conditions: for estimated human equivalent dose of rat NOAEL: in vivo, oral; for estimated human equivalent of NOAEL as total amount: assuming a body weight of 150 lbs
Experimental: This is an estimated human equivalent of 558 mg/kg and 665 mg/kg for men and women, respectively; assuming a body weight of 150 lbs equates to 38 g (males) and 45 g (females). […] Overall, standard doses of HMB appear to be well-tolerated over long periods of time.

[2] = in vivo; cited from earlier work
rats = conditions: oral ingestion, cited from earlier work
Human = conditions: cited from earlier work
[3] = tested on: patients with statin-induced myopathy (SIM); test: Example 1: HMB and leucic acid combination therapy in patients with statin-induced myopathy; format: in vivo, human; conditions: two patients with SIM on statin, summary
Experimental: The effects of combined administration of HMB and leucic acid was studied in two patients with statin-induced myopathy (SIM). Both patients enrolled were under the care of a board certified cardiologist. […] person with a history of PCI/coronary stent ramus intermedius; historically statin intolerant lipid disorder with LDL=168, total cholesterol=281, with triglycerides=316 on a hypolipidemic regimen of Welchol, 6 tabs/d (for a total of 1500-3000 mg/d) and Zetia, 10 mg/d; unable to achieve goal (i.e., LDL cholesterol <100 mg % in patients with coronary risk factors and <70 mg % in coronary patients (with previous myocardial infarction (MI), percutaneous coronary intervention (PCI), or coronary bypass surgery) as well as patients with peripheral vascular disease and diabetics) off statins and therefore begun on Vytorin, 10/40 mg daily+3-hydroxy 3-methyl butyrate (HMB) at 2 grams BID. […] person with angiographic small vessel disease; type 2 diabetes and type 2a hyperlipidemia; history of statin intolerance with myalgia, weakness and severely elevated CPKs (900-1000 range, normal 200); patient therefore treated with Welchol 6 grams/d and Zetia 10 mg/d with an LDL=185 on this regimen. The patient was subsequently placed on Crestor 20 mg/d+HMB 2 grams BID with a drop in LDL=49 and improved CPK levels (300-400 range).

[4] = towards oxygenation in humans; cited from earlier work

SMILES	estimated human equivalent dose of rat NOAEL ([1]; female, women) [mg/kg]	estimated human equivalent of NOAEL as total amount ([1]; females) [g]	estimated human equivalent dose of rat NOAEL ([1]; male, men) [mg/kg]	estimated human equivalent of NOAEL as total amount ([1]; males) [g]	half-lives [2]	time to reach peak levels [2]	No Observed Adverse Effect Level (NOAEL) (rats; female rats) [mg/kg]	No Observed Adverse Effect Level (NOAEL) (rats; male rats) [mg/kg]	toxicological parameters in serum (Human; 3 g HMB daily for up to 8 weeks, youth and older persons)	safety of long-term administration (Human; 3 g daily, one year of administration)	toxic effects on serum parameters (Human; approximately 6 g HMB daily (78 mg/kg) for one month, untrained young males subject to exercise)	basophils (Human; half the dose (of approximately 6 g daily), considered to be insignificant)	tolerability (Human; standard doses over long periods of time)	resolution of SIM [3]	reaction half time [4] [min]
CC(C)(O)CC(=O)O [HMB, β-hydroxy β-methylbutyrate]	665	45	558	38	relatively short	quickly	4160	3490	failed to alter toxicological parameters in serum	safe	did not show any toxic effects	spontaneous increase in basophils	well-tolerated	incomplete resolution of SIM	
CC(C)CC(O)C(=O)O (centres unmarked) [leucic acid, 2-hydroxy-4-methylpentanoic acid]					relatively short	quickly									230
